Measurements as given in patent US20090081197A1 (Palatin Technologies, Inc., priority 2007, published 2009).
pEC50: −log10 of the molar value. Non-standard residues stand in square brackets, D forms with d. Residues, ends and D or L forms follow the SMILES beside them. *: point of attachment. dPhe(4-Cl) = N[C@H](Cc1ccc(Cl)cc1)C(=O)O; Ahp = NCCCCCCC(=O)O; Bn = c1ccc(C*)cc1

Columns and labels:
MC1-R = molecular target: T1, MC1-R (Mus musculus, UniProt Q01727); assay: Competitive inhibition assay using [I^125]-NDP-α-MSH, B-16 mouse melanoma cell membranes; assay type: binding; conditions: for inhibition at 1 µM: 1 μM test compound, read-out: Inhibition at 1 μM (NDP-α-MSH) In Normal System, MC1-R; for Ki: read-out: Ki (nM) (NDP-α-MSH) In Normal System, MC1-R
T1 construct: B-16 mouse melanoma cells (containing MC1-R); endogenous in cells
T1 sequence (Q01727 whole entry): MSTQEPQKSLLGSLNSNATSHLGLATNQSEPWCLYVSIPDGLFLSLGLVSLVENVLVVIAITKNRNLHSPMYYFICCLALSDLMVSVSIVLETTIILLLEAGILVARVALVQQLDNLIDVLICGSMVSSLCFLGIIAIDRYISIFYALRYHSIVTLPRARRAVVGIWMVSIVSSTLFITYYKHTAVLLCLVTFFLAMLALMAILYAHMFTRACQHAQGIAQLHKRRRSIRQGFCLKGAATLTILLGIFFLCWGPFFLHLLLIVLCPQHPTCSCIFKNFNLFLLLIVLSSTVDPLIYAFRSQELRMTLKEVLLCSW
How it was run: (§1)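 Tracer was 0.4 nM for MC3-R and MC5-R, 0.2 nM for MC4-R and 0.1 nM for MC1-R. Bound radioactivity was gamma-counted after filtration; values are triplicate means, with results below 0% reported as 0%.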

[1] = Penile erection induction in male rats; assay type: in vivo; conditions: rat
How it was run: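 Male Sprague-Dawley rats (200-250 g), groups of 4-8, dosed IV or ICV at various doses and observed individually for penile erections. Only statistically relevant increases over vehicle-control mean PEs count as induction; IV responses below 1.0 PEs/rat treated as equivocal, some retested ICV.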

[2] = ICV food intake and body weight change; assay type: in vivo; conditions: rat, 1 nmol, 24 hours
Description: (§2) ICV food intake and body weight change. Change in food intake and body weight was evaluated for selected compounds. Rats with indwelling intracerebroventricular cannulas (ICV rats) were obtained from Hilltop Lab Animals, Inc. (Scottdale, Pa.). Animals were individually housed in conventional plexiglass hanging cages and maintained on a controlled 12 hour on/off light cycle. Water and powdered (LabDiet, 5P00 Prolab RMH 3000) or pelleted (Harlan Teklad 2018 18% Protein Rodent Diet) food was provided ad libitum. For 1 week before treatment, 24-hour food intake and body weight change was recorded to assess a baseline for the group during vehicle treatment. The rats were dosed ICV with vehicle or selected compounds (1-3 nmol). The changes in body weight and food intake for the 24 hour period after dosing were determined. The changes in body weight and food intake for the 48 hour and 72 hour periods after dosing were also measured to determine reversal of changes in body weight and food intake effects back to baseline levels.

[3] = IV and IP food intake and body weight change, rats; assay type: in vivo; conditions: rat, IV, dose not stated; for decrease in body weight: 24 hours
Description: as §2, with “IV and IP food” for “ICV food”, “compounds. Male Sprague-Dawley rats or male C57BL/6 mice” for “compounds. Rats with indwelling intracerebroventricular cannulas (ICV rats)”, “were utilized.” for “were obtained from Hilltop Lab Animals, Inc. (Scottdale, Pa.).”, “dosed IV” for “dosed ICV”, “compounds (0.5-3 mg/kg, and in some cases up to 10 mg/Kg) or dosed intraperitoneally (IP) with vehicle or selected compounds (0.5-10 mg/kg, and in some cases up to 50 mg/kg). Mice were dosed IP.” for “compounds (1-3 nmol).”, “to determined” for “to determine”

MC3-R = MC3-R (Homo sapiens, UniProt P41968); assay: Competitive inhibition assay using [I^125]-NDP-α-MSH, hMC3-R membranes; assay type: binding; set-up: expressed in transfected cells; conditions: 1 μM test compound; read-out: Inhibition at 1 μM (NDP-α-MSH) In Normal System, MC3-R
MC3-R, sequence (P41968 whole entry): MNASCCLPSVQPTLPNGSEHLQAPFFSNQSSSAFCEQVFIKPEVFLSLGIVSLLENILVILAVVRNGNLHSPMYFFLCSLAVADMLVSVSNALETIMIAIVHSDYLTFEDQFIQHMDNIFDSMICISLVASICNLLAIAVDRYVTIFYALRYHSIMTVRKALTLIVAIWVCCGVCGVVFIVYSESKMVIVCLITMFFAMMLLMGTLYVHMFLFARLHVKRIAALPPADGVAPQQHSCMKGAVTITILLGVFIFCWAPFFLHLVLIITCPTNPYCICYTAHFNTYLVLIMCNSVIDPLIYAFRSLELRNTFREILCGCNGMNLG
How it was run: as §1

MC5-R = MC5-R (Homo sapiens, UniProt P33032); assay: Competitive inhibition assay using [I^125]-NDP-α-MSH, hMC5-R membranes; assay type: binding; set-up: expressed in transfected cells; conditions: 1 μM test compound; read-out: Inhibition at 1 μM (NDP-α-MSH) In Normal System, MC5-R
MC5-R, sequence (P33032 whole entry): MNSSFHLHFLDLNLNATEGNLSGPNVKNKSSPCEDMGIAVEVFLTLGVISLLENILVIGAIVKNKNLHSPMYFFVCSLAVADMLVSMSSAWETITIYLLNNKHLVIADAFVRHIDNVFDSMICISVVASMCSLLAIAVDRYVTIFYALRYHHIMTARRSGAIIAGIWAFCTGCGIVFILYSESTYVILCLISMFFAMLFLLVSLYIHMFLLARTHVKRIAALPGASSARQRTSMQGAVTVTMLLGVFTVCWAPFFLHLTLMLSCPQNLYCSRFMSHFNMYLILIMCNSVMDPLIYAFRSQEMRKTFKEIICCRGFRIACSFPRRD
How it was run: as §1

MC4-R [4] = molecular target: T2, MC4-R (Homo sapiens, UniProt P32245); assay: cAMP functional activity assay in HEK-293 cells, normal system; assay type: cell-based; set-up: expressed in transfected cells; host or cells: HEK-293; conditions: for intrinsic activity at MC4-R in a normal system: normal receptor density system, NDP-α-MSH = 1.0; for functional status at MC4-R in cAMP assay: normal system, 1 μM concentration where stated
T2 sequence (P32245 whole entry): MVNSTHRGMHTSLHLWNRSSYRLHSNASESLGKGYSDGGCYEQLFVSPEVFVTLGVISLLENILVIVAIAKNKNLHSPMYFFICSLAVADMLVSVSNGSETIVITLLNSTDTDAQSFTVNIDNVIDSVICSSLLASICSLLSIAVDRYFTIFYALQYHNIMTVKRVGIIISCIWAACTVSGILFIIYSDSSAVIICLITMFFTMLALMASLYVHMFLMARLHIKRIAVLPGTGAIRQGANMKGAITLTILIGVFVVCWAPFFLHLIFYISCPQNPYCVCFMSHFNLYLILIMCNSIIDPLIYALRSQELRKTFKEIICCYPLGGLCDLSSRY

MC4-R [5] = molecular target: T2, MC4-R; assay: Competitive inhibition assay using [I^125]-NDP-α-MSH, hMC4-R membranes; assay type: binding; set-up: host or cells: TREx-293 (HEK-293 stably expressing Tet repressor); conditions: for inhibition at 1 µM: 1 μM test compound, read-out: Inhibition at 1 μM (NDP-α-MSH) In Normal System, MC4-R
How it was run: as §1

MC4-R [6] = molecular target: T2, MC4-R; assay: cAMP agonist stimulation, low receptor density system (0.1 ng/mL doxycycline); conditions: for Efficacy/Intrinsic Activity: 0.1 ng/mL doxycycline, low receptor density hMC4-R system, NDP-α-MSH maximal cAMP = 1.0
MC4-R [7] = molecular target: T2, MC4-R; assay: cAMP agonist stimulation, high receptor density system (10 ng/mL doxycycline); conditions: for Efficacy/Intrinsic Activity: 10 ng/mL doxycycline, high receptor density hMC4-R system, NDP-α-MSH maximal cAMP = 1.0
[8] = IP (and IN) food intake, mice; assay type: in vivo; conditions: mouse, 4 hours
Description: IV and IP food intake and body weight change. Change in food intake and body weight was evaluated for selected compounds. Male Sprague-Dawley rats or male C57BL/6 mice were utilized. Animals were individually housed in conventional plexiglass hanging cages and maintained on a controlled 12 hour on/off light cycle. Water and powdered (LabDiet, 5P00 Prolab RMH 3000) or pelleted (Harlan Teklad 2018 18% Protein Rodent Diet) food was provided ad libitum. For 1 week before treatment, 24-hour food intake and body weight change was recorded to assess a baseline for the group during vehicle treatment. The rats were dosed IV with vehicle or selected compounds (0.5-3 mg/kg, and in some cases up to 10 mg/Kg) or dosed intraperitoneally (IP) with vehicle or selected compounds (0.5-10 mg/kg, and in some cases up to 50 mg/kg). Mice were dosed IP. […] The changes in body weight and food intake for the 48 hour and 72 hour periods after dosing were also measured to determined reversal of changes in body weight and food intake effects back to baseline levels.

Compound	inhibition at 1 µM (MC1-R) [%]	Penile Erection IV ([1]; IV)	penile erection response ([1]; IV)	decrease in body weight [2] [%]	decrease in food intake [2] [%]	24 hour decrease in food intake [3] [%]	inhibition at 1 µM (MC3-R) [%]	inhibition at 1 µM (MC5-R) [%]	intrinsic activity at MC4-R in a normal system (MC4-R [4])	functional status at MC4-R in cAMP assay (MC4-R [4])	inhibition at 1 µM (MC4-R [5]) [%]	Efficacy/Intrinsic Activity (MC4-R [6])	pEC50 (MC4-R [7])	Efficacy/Intrinsic Activity (MC4-R [7])	Ki (MC1-R) [nM]	decrease in body weight [3] [%]	Penile Erection ICV ([1]; ICV)	maximal decrease in food intake ([8]; IP, 3 mg/kg) [%]	other results
C[C@H](NC(=O)[C@H](Cc1c[nH]c2ccccc12)NC(=O)[C@H](CCCNC(=N)N)NC(=O)[C@@H](Cc1ccc(Cl)cc1)NC(=O)[C@H](COCc1ccccc1)NC(=O)CCCCCCN)C(N)=O [Example 15, NH2—(CH2)6—C(═O)-Ser(Bzl)-D-Phe(4-Cl)-Arg-Trp-Ala-NH2] (H-[Ahp]S(Bn)[dPhe(4-Cl)]RWA-NH2)	60	No	no penile erection response	2	14	4	93	79	less than 0.1	functionally inactive	100	None	7.26	0.67	–	–	–	–	–
N=C(N)NCCC[C@H]1C(=O)N2C(CC[C@@H]2COc2ccc3ccccc3c2)N1C(=O)[C@@H](Cc1ccc(Cl)cc1Cl)NC(=O)[C@@H]1CC[C@H](c2ccccc2)N1 (stereo partly drawn) [Example 19, (2S,5R)-5-Phenyl-pyrrolidine-2-carboxylic acid {(R)-1-(2,4-dichloro-benzyl)-2-[(2S,5R)-2-(3-guanidino-propyl)-5-(naphthalen-2-yloxymethyl)-3-oxo-hexahydro-pyrrolo[1,2-a]imidazol-1-yl]-2-oxo-ethyl}-amide]	16	No	–	3	38	1	43	86	–	no intrinsic activity (intrinsic activity below 0.1 (10%) is classified as inactive or having no intrinsic activity)	97	None	6.76	0.22	1040	2	–	–	penile erection response ([1]; IV, 1 μg/kg): no penile erection response
N=C(N)NCCC[C@H](NC(=O)[C@@H](Cc1ccc(Cl)cc1)NC(=O)[C@H](COCc1ccccc1)NC(=O)CCCCCCN)C(=O)N[C@@H](Cc1c[nH]c2ccccc12)C(=O)N[C@@H](CC(=O)O)C(=O)N[C@@H](Cc1ccccc1)C(N)=O [Example 14, NH2—(CH2)6—C(═O)-Ser(Bzl)-D-Phe(4-Cl)-Arg-Trp-Asp-Phe-NH2] (H-[Ahp]S(Bn)[dPhe(4-Cl)]RWDF-NH2)	38	No	no penile erection response	−2	50	30	66	52	0.5	partial agonist (intrinsic activity between 0.1 (10%) and 0.7 (70%) is classified as a partial agonist)	99	None	6.85	0.64	–	2	–	–	–
Cc1ccc(C[C@@H](N)C(=O)N2C[C@@H](C)N(CCc3ccc4ccccc4c3)C[C@@H]2CCCNC(=N)N)c(C)c1 [Example 27, N-{3-[1-[2(R)-Amino-3-(2,4-dimethyl-phenyl)-propionyl]-5(R)-methyl-4-(2-naphthalen-2-yl-ethyl)-piperazin-2(S)-yl]-propyl}-guanidine]	9	No	–	–	–	–	62	59	0.2	partial agonist (intrinsic activity between 0.1 (10%) and 0.7 (70%) is classified as a partial agonist)	100	None	6.89	0.61	1230	–	No	–	penile erection response ([1]; ICV, 1 and 3 nmole): no penile erection response; penile erection response ([1]; IV, 1 and 3 mg/kg): no penile erections; inhibition in vivo at 3 mg/kg ([8]; IP, 3 mg/kg, read-out: maximal decrease in food intake): 47%; inhibition in vivo at 10 mg/kg ([8]; IP, 10 mg/kg, read-out: maximal decrease in food intake): 88%
C[C@@H]1CN(C(=O)[C@H](N)Cc2ccc(Cl)cc2)[C@@H](CCCNC(=N)N)CN1CCc1ccc2ccccc2c1 [Example 28, N-{3-[1-[2(R)-Amino-3-(4-chloro-phenyl)-propionyl]-5(R)-methyl-4-(2-naphthalen-2-yl-ethyl)-piperazin-2(S)-yl]-propyl}-guanidine]	64	No	–	–	–	–	70	61	0.8	agonist (intrinsic activity of 0.7 (70%) or higher is classified as an agonist)	97	0.29	7.62	0.75	–	–	–	46	penile erection response ([1]; IV, 0.003 to 3 mg/kg): no penile erections; pEC50 (MC4-R [6]): 6.97
N=C(N)NCCC[C@H](NC(=O)[C@@H](Cc1ccc(Cl)cc1)NC(=O)[C@H](COCc1ccccc1)NC(=O)CCCCCCN)C(=O)N[C@@H](Cc1c[nH]c2ccccc12)C(N)=O [Example 1, NH2—(CH2)6—C(═O)-Ser(Bzl)-(D)Phe(4-Cl)-Arg-Trp-NH2] (H-[Ahp]S(Bn)[dPhe(4-Cl)]RW-NH2)	33	–	–	–	21	–	94	73	0.32	partial agonist (intrinsic activity between 0.1 (10%) and 0.7 (70%) is classified as a partial agonist)	99	None	7.68	0.97	–	–	No	26	penile erection response ([1]; ICV, 0.01 to 5 nmol): no penile erection response; maximal decrease in food intake ([8]; IN, 10 μg/kg): 16%; Ki (MC4-R [5]; read-out: Ki (nM) (NDP-α-MSH) In Normal System, MC4-R): 3 nM
